The assay deals with blood cells. As to the kind of experiment: Hemolysis of blood cells on blood retention tool (plasma colored red with Hb). The format is cell-based. As to conditions: tools of Example 4 / Comparative Example 4; glycine as 5% solution. The protocol: Blood cell separation was carried out using this tool, and the presence or absence of hemolysis was determined. In the following, unless otherwise stated, the concentration (%) of a hemolysis inhibitor in a hemolysis inhibitor solution is represented by a percentage (unit: (w/v) %) of the weight (unit: g) of the hemolysis inhibitor with respect to the volume (100 ml) of a solvent.
Hemolysis inhibitors were dissolved in solvents (distilled water) beforehand to prepare hemolysis inhibitor solutions shown in Table 1 below. […]
On the glass filter surface of each of the thus-obtained blood retention tools, 100 μl of whole blood (hematocrit: 38%) was dropped to cause the separation of blood cells and plasma and the development of the plasma. Then, after a lapse of 2 minutes, the presence or absence of hemolysis of the blood cells was determined. […]
Blood retention tools (Example 3-1 and 3-2) were produced in the same manner as in Example 1, except that the following development porous membranes (a filter paper and a cellulose acetate membrane) and blood cell separation porous membranes (glass filters) were used and valine was used as the hemolysis inhibitors. […] Using these blood retention tools, blood cell separation was carried out and the presence or absence of hemolysis and the development of blood cells were determined in the same manner as in Examples 1 and 2.

Consider `NCC(=O)O` [Gly, glycine], for which the hemolysis entry was “occurrence of hemolysis was observed”.
